Measured values as given in patent US8198280B2, “N-hydroxyamide derivatives and use thereof” (Merck Serono SA, priority 2005, dated 2012).

What was measured:
metalloelastase (MMP-12) = metalloelastase (MMP-12) (Homo sapiens, UniProt P39900); experiment: MMP-12 enzyme inhibition assay (coumarin-labelled peptide substrate); assay type: biochemical; details: fluorogenic substrate McaPLGLDpaAR, 37° C., 2 hours
Description: (§1) Compounds of the invention were tested for inhibitory activity against 92 kDa gelatinase (MMP-9) in an assay using a coumarin-labeled peptide substrate, (7-methoxycoumarin-4-yl)acetyl-Pro-Leu-Gly-Leu-(3-[2,4-dinitrophenyl]-L-2,3-diaminopropionyl)-Ala-Arg-NH2 (McaPLGLDpaAR) (Knight et al, 1992, FEBS Lett., 263-266).
(§2) Stock solutions were made up as follows: Assay Butter: 100 mM Tris-HCl pH 7.6 containing 100 mM NaCl, 10 mM CaCl2, and 0.05% Brij 35.
(§3) Substrate: 0.4 mM McaPLGLDpaAR (from Bachem) (0.437 mg/ml) stock solution in 100% DMSO (stored at −20° C.). Dilute to 8 μM in assay butter.
(§4) Enzyme: Recombinant human 92 kDa gelatinase (MMP-9; APMA (4-aminophenyl mercuric acetate)-activated if necessary) appropriately diluted in assay butter.
(§5) Test Compounds were prepared initially as 10 mM compound solution in 100% DMSO, diluted to 1 mM in 100% DMSO, then serially diluted 3-fold in 100% DMSO across columns 1-10 of a 96-well microtitre plate Assay concentration range, 100 μM (column 1) to 5.1 nM (column 10).
(§6) The assay was performed in a total volume of 100 μL per well in 96-well microtitre plates. Activated enzyme (20 μL) was added to the wells followed by 20 μL of assay butter. Appropriate concentrations of test compounds dissolved in 10 μL of DMSO were then added followed by 50 μL of McaPLGLDpaAR ([…], prepared by dilution of DMSO stock in assay butter). For each as say ten concentrations of test compound were examined in duplicate. Control wells lack either enzyme or test compound. The reactions were incubated at 37° C. for 2 hours. The fluorescence at 405 nm was measured immediately with an SLT Fluostar fluorometer (SLT Labinstruments GmbH, Grodig, Austria) using 320 nm excitation, without stopping the reaction.
(§7) The effect of the test compound was determined from the dose response curve generated by the 10 duplicate concentrations of inhibitor. The IC50 (the concentration of compound required to give a 50% decrease in enzyme activity) was obtained by fitting data to the equation, Y=a+((b−a)/(1+(c/X)^d)). (Y=inhibition achieved for a particular dose; X=the dose in nM; a=minimum y or zero % inhibition; b=maximum y or 100% inhibition; c=is the IC50; d=is the slope). The result was rounded to one significant figure.
Compounds of the invention were tested for inhibitory activity against metalloelastase (MMP-12) in an assay using a coumarin-labelled peptide substrate, (7-methoxycoumarin-4-yl)acetyl-Pro-Leu-Gly-Leu-(3-[2,4dinitrophenyl]-L-2,3-diaminopropionyl)-Ala-Arg-NH2 (McaPLGLDpaAR) (Knight et al, 1992, above). The protocol for this assay was as described for the MMP-9 assay above.

collagenase (MMP-1) = target: T1, collagenase (MMP-1) (Homo sapiens, UniProt P03956); experiment: MMP-1 enzyme inhibition assay (coumarin-labelled peptide substrate); assay type: biochemical; details: fluorogenic substrate McaPLGLDpaAR, 37° C., 2 hours
T1 sequence (P03956 100-469): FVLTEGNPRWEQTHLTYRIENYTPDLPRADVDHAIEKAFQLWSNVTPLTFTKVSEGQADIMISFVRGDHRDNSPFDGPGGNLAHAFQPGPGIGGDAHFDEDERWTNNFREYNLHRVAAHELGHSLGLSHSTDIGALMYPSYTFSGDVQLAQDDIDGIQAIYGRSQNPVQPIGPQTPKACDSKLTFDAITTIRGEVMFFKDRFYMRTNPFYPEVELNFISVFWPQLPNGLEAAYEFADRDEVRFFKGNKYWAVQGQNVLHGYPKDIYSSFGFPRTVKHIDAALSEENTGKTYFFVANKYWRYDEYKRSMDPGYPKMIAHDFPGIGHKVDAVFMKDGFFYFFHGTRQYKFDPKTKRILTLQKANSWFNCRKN
Description: as §1, §2, §3, §4, §5, §6, §7
Compounds of the invention were tested for inhibitory activity against collagenase (MMP-1) in an assay using a coumarin-labelled peptide substrate, (7-methoxycoumarin-4-yl)acetyl-Pro-Leu-Gly-Leu-(3-[2,4-dinitrophenyl]-L-2,3diaminopropionyl)-Ala-Arg-NH2 (Mca PLGLDpaAR) (Knight et al, 1992, above). The protocol for this assay was as described for the MMP-9 assay above.

[1] = system: IL-2-induced peritoneal recruitment of lymphocytes; experiment: IL-2-induced peritoneal recruitment of lymphocytes; assay type: in vivo, C3H/HEN mice; details: mice, 1 mg/kg po, 15 min prior to IL-2; cells collected 24 h after IL-2
Description: Administration of IL-2 intraperitoneally causes migration of lymphocytes into the intraperitoneal cavity. This is a model for the cellular migration that occurs during inflammation.
C3H/HEN mice (Elevage Janvier, France) are intraperitoneally injected with IL-2 (Serono Pharmaceutical Research Institute, 20 μg/kg, in saline).
Compounds of the invention are suspended in 0.5% carboxymethylcellulose (CMC)/0.25% tween-20 and are administered by s.c. or p.o. route (10 ml/kg) 15 min prior to administration of IL-2.
Twenty-four hours after administration of IL-2, peritoneal white blood cells are collected by 3 successive lavages of the peritoneal cavity with 5 ml phosphate buffered saline (PBS)-1 mM EDTA (+4° C.). The suspension is centrifuged (1700 g×10 min at +4° C.). The resulting pellet is suspended in 1 ml PBS-1 mM EDTA.
Lymphocytes are identified and counted using a Beckman/Coulter counter.
The animals are divided into 6 groups (6 mice each group):
Group 1: (baseline) receives 0.5% CMC/0.25% tween-20 (vehicle of compound of the invention) and saline (vehicle of IL-2);
Group 2: (control IL-2) receives 0.5% CMC/0.25% tween-20 and injection of IL-2;
Group 3: Experimental group (Compound of the invention Dose 1) receives a compound of the invention and injection of IL-2; […]
Inhibition of lymphocyte recruitment is calculated as follows: […]

Sequence of metalloelastase (MMP-12) (P39900 106-470): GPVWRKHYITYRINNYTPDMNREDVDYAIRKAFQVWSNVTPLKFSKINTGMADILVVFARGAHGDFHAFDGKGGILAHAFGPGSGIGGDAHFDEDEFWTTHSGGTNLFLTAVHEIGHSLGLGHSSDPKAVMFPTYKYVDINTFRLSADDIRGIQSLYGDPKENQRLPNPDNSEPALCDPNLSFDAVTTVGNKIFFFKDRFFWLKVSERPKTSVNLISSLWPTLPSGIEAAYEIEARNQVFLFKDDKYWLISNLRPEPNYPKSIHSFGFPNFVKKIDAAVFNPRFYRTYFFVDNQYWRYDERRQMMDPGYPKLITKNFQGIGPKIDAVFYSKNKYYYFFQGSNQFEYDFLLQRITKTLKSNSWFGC

Row | SMILES | IC50 (metalloelastase (MMP-12)) | IC50 (collagenase (MMP-1)) | % inhibition of IL-2-induced peritoneal recruitment of lymphocytes [1]
1 | O=C(NO)[C@H](O)CC(=O)N1CCN(c2ccc(F)cc2)CC1 [Example 1, (2R)-4-[4-(4-fluorophenyl)piperazin-1-yl]-N,2-dihydroxy-4-oxo butanamide] | 264 nM | > 5000 nM | 
2 | O=C(NO)[C@@H](O)CC(=O)N1CCN(c2ccc(F)cc2)CC1 [Example 2, (2S)-4-[4-(4-fluorophenyl)piperazin-1-yl]-N,2-dihydroxy-4-oxobutanamide] | 58 nM | > 5000 nM | 51%
3 | C[C@@H]1CN(c2ccc(OC(F)(F)F)cc2)CCN1C(=O)C[C@H](O)C(=O)NO [Example 3, (2S)—N,2-dihydroxy-4-{(2R)-2-methyl-4-[4-(trifluoromethoxy)phenyl]piperazin-1-yl}-4-oxobutanamide] | 5 nM | > 5000 nM | 
4 | C[C@@H]1CN(c2ccc(-c3ccccc3)cc2)CCN1C(=O)C[C@H](O)C(=O)NO [Example 4, (2S)-4-[(2R)-4-biphenyl-4-yl-2-methylpiperazin-1-yl]-N,2-dihydroxy-4-oxobutanamide] | 5 nM | > 5000 nM | 
